Assay results: PubChem BioAssay (NCI)
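Following 48 hours of exposure in 96-well plates, responses at five concentrations were used to interpolate endpoints linearly. The concentration for full growth arrest is given as TGI.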

Experiments:
Assay in all cases: NCI anticancer screen, dose series, 48 h
786-0 renal = tested on: 786-0 renal
A498 renal = tested on: A498 renal
A549 NSCLC = tested on: A549 NSCLC
ACHN renal = tested on: ACHN renal
BT-549 breast = tested on: BT-549 breast
CAKI-1 renal = tested on: CAKI-1 renal
CCRF-CEM leukemia = tested on: CCRF-CEM leukemia
COLO 205 colon = tested on: COLO 205 colon
DU-145 prostate = tested on: DU-145 prostate
EKVX NSCLC = tested on: EKVX NSCLC
HCC-2998 colon = tested on: HCC-2998 colon
HCT-116 colon = tested on: HCT-116 colon
HCT-15 colon = tested on: HCT-15 colon
HL-60(TB) leukemia = tested on: HL-60(TB) leukemia
HOP-62 NSCLC = tested on: HOP-62 NSCLC
HOP-92 NSCLC = tested on: HOP-92 NSCLC
HS 578T breast = tested on: HS 578T breast
HT29 colon = tested on: HT29 colon
IGROV1 ovarian = tested on: IGROV1 ovarian
K-562 leukemia = tested on: K-562 leukemia
KM12 colon = tested on: KM12 colon
LOX IMVI melanoma = tested on: LOX IMVI melanoma
M14 melanoma = tested on: M14 melanoma
MALME-3M melanoma = tested on: MALME-3M melanoma
MCF7 breast = tested on: MCF7 breast
MDA-MB-231 breast = tested on: MDA-MB-231 breast
MDA-MB-435 = tested on: MDA-MB-435
MDA-N = tested on: MDA-N
MOLT-4 leukemia = tested on: MOLT-4 leukemia
NCI-H226 lung = tested on: NCI-H226 lung
NCI-H23 lung = tested on: NCI-H23 lung
NCI-H460 lung = tested on: NCI-H460 lung
NCI-H522 lung = tested on: NCI-H522 lung
NCI/ADR-RES ovarian = tested on: NCI/ADR-RES ovarian
OVCAR-3 ovarian = tested on: OVCAR-3 ovarian
OVCAR-4 ovarian = tested on: OVCAR-4 ovarian
OVCAR-5 ovarian = tested on: OVCAR-5 ovarian
OVCAR-8 ovarian = tested on: OVCAR-8 ovarian
PC-3 prostate = tested on: PC-3 prostate
RPMI-8226 leukemia = tested on: RPMI-8226 leukemia
RXF 393 renal = tested on: RXF 393 renal
SF-268 CNS = tested on: SF-268 CNS
SF-295 CNS = tested on: SF-295 CNS
SF-539 CNS = tested on: SF-539 CNS
SK-MEL-2 melanoma = tested on: SK-MEL-2 melanoma
SK-MEL-28 melanoma = tested on: SK-MEL-28 melanoma
SK-MEL-5 melanoma = tested on: SK-MEL-5 melanoma
SK-OV-3 ovarian = tested on: SK-OV-3 ovarian
SN12C renal = tested on: SN12C renal
SNB-19 CNS = tested on: SNB-19 CNS
SNB-75 CNS = tested on: SNB-75 CNS
SR leukemia = tested on: SR leukemia
SW-620 colon = tested on: SW-620 colon
T-47D breast = tested on: T-47D breast
TK-10 renal = tested on: TK-10 renal
U251 CNS = tested on: U251 CNS
UACC-257 melanoma = tested on: UACC-257 melanoma
UACC-62 melanoma = tested on: UACC-62 melanoma
UO-31 renal = tested on: UO-31 renal

Q: Which results are given for CCOC(=O)C(NC(=O)CC(C)C)(N1CCN(c2cc3c(cc2F)c(=O)c(C(=O)O)cn3C2CC2)CC1)C(F)(F)F (centres undefined)?
A: TGI (786-0 renal): > 100 µM; TGI (A498 renal): 16.8 µM; TGI (A549 NSCLC): > 100 µM; TGI (ACHN renal): 34.6 µM; TGI (BT-549 breast): 39.1 µM; TGI (CAKI-1 renal): 74.5 µM; TGI (CCRF-CEM leukemia): 14 µM; TGI (COLO 205 colon): 30.3 µM; TGI (DU-145 prostate): > 100 µM; TGI (EKVX NSCLC): 92.8 µM; TGI (HCC-2998 colon): 28.4 µM; TGI (HCT-116 colon): 56.2 µM; TGI (HCT-15 colon): 22.3 µM; TGI (HL-60(TB) leukemia): 26 µM; TGI (HOP-62 NSCLC): > 100 µM; TGI (HOP-92 NSCLC): 25.3 µM; TGI (HS 578T breast): 57.8 µM; TGI (HT29 colon): 91.6 µM; TGI (IGROV1 ovarian): 37.6 µM; TGI (K-562 leukemia): 42 µM; TGI (KM12 colon): 39.4 µM; TGI (LOX IMVI melanoma): 35.5 µM; TGI (M14 melanoma): 47.5 µM; TGI (MALME-3M melanoma): 31.7 µM; TGI (MCF7 breast): 68.4 µM; TGI (MDA-MB-231 breast): 46.1 µM; TGI (MDA-MB-435): 56.5 µM; TGI (MDA-N): 52.3 µM; TGI (MOLT-4 leukemia): 40.2 µM; TGI (NCI-H226 lung): 46.3 µM; TGI (NCI-H23 lung): 33.5 µM; TGI (NCI-H460 lung): > 100 µM; TGI (NCI-H522 lung): 11.9 µM; TGI (NCI/ADR-RES ovarian): 52.2 µM; TGI (OVCAR-3 ovarian): 66.7 µM; TGI (OVCAR-4 ovarian): 68 µM; TGI (OVCAR-5 ovarian): 32.8 µM; TGI (OVCAR-8 ovarian): > 100 µM; TGI (PC-3 prostate): 63.7 µM; TGI (RPMI-8226 leukemia): 78.6 µM; TGI (RXF 393 renal): 35.8 µM; TGI (SF-268 CNS): 40.8 µM; TGI (SF-295 CNS): 61.5 µM; TGI (SF-539 CNS): 34.7 µM; TGI (SK-MEL-2 melanoma): 53.3 µM; TGI (SK-MEL-28 melanoma): 55.5 µM; TGI (SK-MEL-5 melanoma): 25.4 µM; TGI (SK-OV-3 ovarian): 65.8 µM; TGI (SN12C renal): > 100 µM; TGI (SNB-19 CNS): > 100 µM; TGI (SNB-75 CNS): 64.5 µM; TGI (SR leukemia): 45.8 µM; TGI (SW-620 colon): 74.1 µM; TGI (T-47D breast): 86.7 µM; TGI (TK-10 renal): 72.9 µM; TGI (U251 CNS): > 100 µM; TGI (UACC-257 melanoma): 57 µM; TGI (UACC-62 melanoma): 30.2 µM; TGI (UO-31 renal): 49.6 µM
